Source: ChEMBL document CHEMBL1201862, “PubChem BioAssay data set” (2004)
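Tested at 5 concentrations; 48 h exposure; 96-well plates; endpoints linearly interpolated, else capped at highest concentration. GI50 marks 50% less growth.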 Activity calls are given as the source filed them. Cut-off read from the data, not from the text of the source: active = GI50 up to about 1.1 µM and inactive = higher.

Columns and labels:
Test in all cases: growth of human tumour cells (NCI), 48 h
[1] = tested on: T47D
[2] = tested on: NCI-H226
[3] = tested on: OVCAR-3
[4] = tested on: UO-31
[5] = tested on: SNB-19
[6] = tested on: 786-0
[7] = tested on: SK-OV-3
[8] = tested on: NCI-H460
[9] = tested on: SK-MEL-28
[10] = tested on: HT-29
[11] = tested on: SF-295
[12] = tested on: HCT-116
[13] = tested on: Hs-578T
[14] = tested on: PC-3
[15] = tested on: NCI/ADR-RES
[16] = tested on: OVCAR-8
[17] = tested on: NCI-H23
[18] = tested on: UACC-62
[19] = tested on: SR

O=c1cc(N2CCN(c3cc(=O)n4ccccc4n3)CC2)oc2ccccc12
GI50 [1]: > 73.5 µM (inactive) | GI50 [2]: > 76.2 µM (inactive) | GI50 [3]: > 100 µM (inactive) | GI50 [4]: 38.1 µM (inactive) | GI50 [5]: > 55.5 µM (inactive) | GI50 [6]: > 76 µM (inactive) | GI50 [7]: > 100 µM (inactive) | GI50 [8]: 26.6 µM (inactive) | GI50 [9]: > 100 µM (inactive) | GI50 [10]: 38 µM (inactive) | GI50 [11]: > 76.7 µM (inactive) | GI50 [12]: > 100 µM (inactive) | GI50 [13]: 36.2 µM (inactive) | GI50 [14]: > 100 µM (inactive) | GI50 [15]: > 66.8 µM (inactive) | GI50 [16]: > 51.4 µM (inactive) | GI50 [17]: 99.1 µM (inactive) | GI50 [18]: > 100 µM (inactive)

OCC1c2ccccc2-n2nc(-c3ccccc3)c(O)c21 (stereo not drawn)
GI50 [1]: 22.3 µM (inactive) | GI50 [2]: 79.4 µM (inactive) | GI50 [3]: 26.7 µM (inactive) | GI50 [4]: 22.8 µM (inactive) | GI50 [5]: 37.9 µM (inactive) | GI50 [6]: 18.2 µM (inactive) | GI50 [7]: 39.4 µM (inactive) | GI50 [8]: 29.9 µM (inactive) | GI50 [9]: 58.1 µM (inactive) | GI50 [10]: 30.6 µM (inactive) | GI50 [11]: 38.5 µM (inactive) | GI50 [12]: > 10 µM (inactive) | GI50 [13]: 42.2 µM (inactive) | GI50 [14]: 17.6 µM (inactive) | GI50 [15]: 18.6 µM (inactive) | GI50 [16]: 18.5 µM (inactive) | GI50 [17]: 54.7 µM (inactive) | GI50 [18]: 20.7 µM (inactive)

CC(=O)Nc1nnc(S(=O)(=O)NC(=S)Nc2ccc(Cl)cc2)s1
GI50 [1]: > 100 µM (inactive) | GI50 [19]: > 100 µM (inactive) | GI50 [3]: > 100 µM (inactive) | GI50 [4]: > 100 µM (inactive) | GI50 [5]: > 100 µM (inactive) | GI50 [6]: > 100 µM (inactive) | GI50 [7]: > 100 µM (inactive) | GI50 [8]: > 100 µM (inactive) | GI50 [9]: > 100 µM (inactive) | GI50 [10]: > 100 µM (inactive) | GI50 [11]: > 100 µM (inactive) | GI50 [12]: > 100 µM (inactive) | GI50 [13]: > 100 µM (inactive) | GI50 [14]: > 100 µM (inactive) | GI50 [15]: > 100 µM (inactive) | GI50 [16]: > 100 µM (inactive) | GI50 [17]: > 100 µM (inactive) | GI50 [18]: > 100 µM (inactive)

COC(=O)Nc1nc2cc(Oc3ccc4nc(NC(=O)OC)[nH]c4c3)ccc2[nH]1
GI50 [1]: 2.59 µM (inactive) | GI50 [19]: 0.252 µM (active) | GI50 [2]: 0.925 µM (active) | GI50 [3]: 0.149 µM (active) | GI50 [4]: 11.9 µM (inactive) | GI50 [5]: 1.29 µM (inactive) | GI50 [6]: 0.435 µM (active) | GI50 [7]: 1.45 µM (inactive) | GI50 [8]: 1.36 µM (inactive) | GI50 [9]: 0.713 µM (active) | GI50 [10]: 1.14 µM (inactive) | GI50 [11]: 1.58 µM (inactive) | GI50 [12]: 0.438 µM (active) | GI50 [13]: 0.975 µM (active) | GI50 [14]: 0.419 µM (active) | GI50 [15]: 4.33 µM (inactive) | GI50 [16]: 1.41 µM (inactive) | GI50 [17]: 1.81 µM (inactive)

CN1N=C(c2ccncc2)OC1c1ccc(Cl)c(Cl)c1 (stereo not drawn)
GI50 [1]: > 100 µM (inactive) | GI50 [2]: > 100 µM (inactive) | GI50 [3]: 72.4 µM (inactive) | GI50 [4]: > 100 µM (inactive) | GI50 [5]: > 100 µM (inactive) | GI50 [6]: 83.6 µM (inactive) | GI50 [7]: > 100 µM (inactive) | GI50 [8]: > 100 µM (inactive) | GI50 [9]: > 100 µM (inactive) | GI50 [10]: 60.8 µM (inactive) | GI50 [11]: > 100 µM (inactive) | GI50 [12]: > 100 µM (inactive) | GI50 [13]: > 100 µM (inactive) | GI50 [14]: > 100 µM (inactive) | GI50 [15]: > 100 µM (inactive) | GI50 [16]: > 100 µM (inactive) | GI50 [17]: > 100 µM (inactive) | GI50 [18]: > 100 µM (inactive)

COC1(OC)CCN(Cc2ccccc2)C1=O
GI50 [1]: 4.45 µM (inactive) | GI50 [2]: 18.7 µM (inactive) | GI50 [3]: 11.4 µM (inactive) | GI50 [4]: 10.9 µM (inactive) | GI50 [5]: 17.8 µM (inactive) | GI50 [6]: 5.08 µM (inactive) | GI50 [7]: 96.4 µM (inactive) | GI50 [8]: 18.7 µM (inactive) | GI50 [9]: 9.62 µM (inactive) | GI50 [10]: 5.92 µM (inactive) | GI50 [11]: 23.4 µM (inactive) | GI50 [12]: 3.68 µM (inactive) | GI50 [13]: > 100 µM (inactive) | GI50 [14]: 13.2 µM (inactive) | GI50 [15]: 25.3 µM (inactive) | GI50 [16]: 6.44 µM (inactive) | GI50 [17]: 20 µM (inactive) | GI50 [18]: 10.9 µM (inactive)
